Target: T1, Btk enzyme (His-tagged, full-length) (Homo sapiens, UniProt Q06187)
T1 construct: 5-10 nM Btk enzyme (His-tagged, full-length); His
Assay: Bruton's Tyrosine Kinase (Btk) Inhibition Assay (33P filtration capture)
Format: biochemical
Conditions: Bruton's tyrosine kinase Assay (Example 34); Table I pyridazinones; 100 μM ATP
Excerpt: Bruton's Tyrosine Kinase (Btk) Inhibition Assay
The assay is a capture of radioactive ^33P phosphorylated product through filtration. The interactions of Btk, biotinylated SH2 peptide substrate (Src homology), and ATP lead to phosphorylation of the peptide substrate. Biotinylated product is bound streptavidin sepharose beads. All bound, radiolabeled products are detected by scintillation counter.
Plates assayed are 96-well polypropylene (Greiner) and 96-well 1.2 μm hydrophilic PVDF filter plates (Millipore).
IC50 determinations are calculated from 10 data points per compound utilizing data produced from a standard 96-well plate assay template. One control compound and seven unknown inhibitors were tested on each plate and each plate was run twice. […] The control compound was staurosporine. Background was counted in the absence of peptide substrate. Total activity was determined in the presence of peptide substrate. The following protocol was used to determine Btk inhibition.
1) Sample preparation: The test compounds were diluted at half-log increments in assay buffer (imidazole, glycerol-2-phosphate, EGTA, MnCl2, MgCl2, BSA).
2) Bead preparation • a.) rinse beads by centrifuging at 500 g • b.) reconstitute the beads with PBS and EDTA to produce a 20% bead slurry
3) Pre-incubate reaction mix without substrate (assay buffer, DTT, ATP, ^33P ATP) and mix with substrate (assay buffer, DTT, ATP, ^33P ATP, peptide substrate) 30° C. for 15 min.
4) To start assay, pre-incubate 10 μL Btk in enzyme buffer (imidazole, glycerol-2-phosphate, BSA) and 10 μL of test compounds for 10 min at RT.
5) Add 30 μL reaction mixture without or with substrate to Btk and compounds.
6) Incubate 50 μL total assay mix for 30 min at 30° C.
7) Transfer 40 μL of assay to 150 μL bead slurry in filter plate to stop reaction.
8) Wash filter plate after 30 min, with following steps • a. 3×250 μL NaCl • b. 3×250 μL NaCl containing 1% phosphoric acid • c. 1×250 μL H2O
9) Dry plate for 1 h at 65° C. or overnight at RT
10) Add 50 μL microscint-20 and count ^33P cpm on scintillation counter.
Calculate percent activity from raw data in cpm percent activity=(sample−bkg)/(total activity−bkg)×100
Calculate IC50 from percent activity, using one-site dose response sigmoidal model y=A+((B−A)/(1+((x/C)^D))))

T1 sequence (Q06187 whole entry): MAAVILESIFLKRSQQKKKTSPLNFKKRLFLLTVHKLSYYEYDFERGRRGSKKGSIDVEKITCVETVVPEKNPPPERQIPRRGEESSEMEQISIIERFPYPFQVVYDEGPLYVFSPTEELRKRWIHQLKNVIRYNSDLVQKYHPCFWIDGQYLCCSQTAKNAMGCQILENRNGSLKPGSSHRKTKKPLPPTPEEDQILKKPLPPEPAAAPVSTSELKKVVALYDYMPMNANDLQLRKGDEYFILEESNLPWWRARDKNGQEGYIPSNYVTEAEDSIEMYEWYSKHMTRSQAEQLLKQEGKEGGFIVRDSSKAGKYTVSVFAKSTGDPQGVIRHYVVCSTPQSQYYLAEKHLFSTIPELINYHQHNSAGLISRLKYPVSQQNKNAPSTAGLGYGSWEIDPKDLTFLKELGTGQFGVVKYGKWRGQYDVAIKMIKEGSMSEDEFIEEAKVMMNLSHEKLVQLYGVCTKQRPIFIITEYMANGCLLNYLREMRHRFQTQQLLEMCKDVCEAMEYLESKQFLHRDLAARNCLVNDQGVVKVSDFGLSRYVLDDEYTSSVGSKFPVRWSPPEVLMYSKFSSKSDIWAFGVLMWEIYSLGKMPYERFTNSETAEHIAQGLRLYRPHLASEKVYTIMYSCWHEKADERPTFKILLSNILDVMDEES

IC50	SMILES
155 nM	Cn1nc(-c2cccc(CC(=O)N3Cc4ccccc4C3)c2)cc(Nc2ccc(C(=O)N3CCC(O)CC3)cn2)c1=O [Compound I-31]
374 nM	Cc1c(NC(=O)c2ccc(C(C)(C)O)cc2)cccc1-c1cc(Nc2ccc(C(=O)N3CCOCC3)cn2)c(=O)n(C)n1 [Compound I-15]
52 nM	Cc1c(NC(=O)c2ccc(C(C)(C)C)cc2)cccc1-c1cc(Nc2ccnc(N3CCC(O)C3)n2)c(=O)n(C)n1 (stereo not shown) [Compound I-22, 4-tert-Butyl-N-(3-{5-[2-(3-hydroxy-pyrrolidin-1-yl) -pyrimidin-4-ylamino]-1-methyl-6-oxo-1-6-dihydro-pyridazin-3-yl}-2-methyl-phenyl)-benzamide]
160 nM	COC(=O)c1ccc(Nc2cc(-c3cccc(NC(=O)c4ccc(C(C)(C)C)cc4)c3C)nn(C)c2=O)nc1 [Compound I-9]

More lines, now with the values behind:

SMILES	IC50
Cn1nc(-c2cccc(NC(=O)c3ccc(C4CC4)cc3)c2CO)cc(Nc2ccc(C(=O)N3CCOCC3)cn2)c1=O [Compound I-46]	< 10 nM
Cc1c(NC(=O)c2ccc(C(C)(C)C)cc2)cccc1-c1cc(Nc2ccnc(S(C)(=O)=O)n2)c(=O)n(C)n1 [Compound I-13]	1060 nM
Cn1nc(-c2cccc(CC(=O)c3ccc(C(C)(C)C)cc3)c2)cc(Nc2ccc(C(=O)N3CCOCC3)cn2)c1=O [Compound I-37, 6-{3-[2-(4-tert-Butyl-phenyl)-2-oxo-ethyl]-phenyl}-2-methyl-4-[5-(morpholine-4-carbonyl)-pyridin-2-ylamino]-2H-pyridazin-3-one]	206 nM
Cn1nc(-c2cccc(CC(=O)NCCC(O)C(C)(C)C)c2)cc(Nc2ccc(C(=O)N3CCOCC3)cn2)c1=O (stereo not shown) [Compound I-29]	1720 nM

Same assay, conditions: Bruton's tyrosine kinase Assay (Example 34); Table II pyridinones; 100 μM ATP

IC50	SMILES
60 nM	Cn1cc(-c2cccc(NC(=O)c3ccc(C4CC4)cc3)c2CO)cc(NC(=O)NCC2CCCO2)c1=O (stereo not shown) [II-84]
< 10 nM	Cn1cc(-c2cccc(NC(=O)c3ccc4c(c3)OCC4(C)C)c2CO)cc(Nc2ccc(C(=O)N3CCOCC3)cn2)c1=O [II-71, 3,3-Dimethyl-2,3-dihydro-benzofuran-6-carboxylic acid (2-hydroxymethyl-3-{1-methyl-5-[5-(morpholine-4-carbonyl)-pyridin-2-ylamino]-6-oxo-1,6-dihydro-pyridin-3-yl}-phenyl)-amide]
< 10 nM	Cn1cc(-c2cccc(NC(=O)N3Cc4ccccc4C3)c2CO)cc(Nc2ccc(C(=O)N3CCOCC3)cn2)c1=O [II-102]
20 nM	Cn1cc(-c2cccc(NC(=O)c3ccc(C4CC4)cc3)c2CO)cc(Nc2cccnn2)c1=O [II-95]
140 nM	CC(C)n1nc(Nc2cc(-c3cccc(NC(=O)c4ccc(C5CC5)cc4)c3CO)cn(C)c2=O)ccc1=O [II-88]
3440 nM	CNC(=O)Nc1cc(-c2cccc(CC(=O)N3Cc4ccc(F)cc4C3)c2)cn(C)c1=O [II-46]
< 10 nM	Cn1cc(-c2cccc(NC(=O)c3ccc(C4(Cl)CC4)cc3)c2CO)cc(Nc2ccc(C(=O)N3CCOCC3)cn2)c1=O [II-75]
681 nM	CNC(=O)Nc1cc(-c2cccc(NC(=O)c3ccc(C(C)(C)C#N)cc3)c2C)cn(C)c1=O [II-42, 4-(Cyano-dimethyl-methyl)-N-{2-methyl-3-[1-methyl-5-(3-methyl-ureido)-6-oxo-1,6-dihydro-pyridin-3-yl]-phenyl}-benzamide]
< 10 nM	Cn1cc(-c2cccc(NC(=O)c3ccc(C4(C(F)F)CC4)cc3)c2CO)cc(Nc2ccc(C(=O)N3CCOCC3)cn2)c1=O [II-72, 4-(1-Difluoromethyl-cyclopropyl)-N-(2-hydroxymethyl-3-{1-methyl-5-[5-(morpholine-4-carbonyl)-pyridin-2-ylamino]-6-oxo-1,6-dihydro-pyridin-3-yl}-phenyl)-benzamide]
68 nM	C[C@H](O)CNC(=O)Nc1cc(-c2cccc(NC(=O)c3ccc(C4CC4)cc3)c2CO)cn(C)c1=O [II-54]
85 nM	Cn1cc(-c2cccc(NC(=O)c3ccc(C(F)(F)F)cc3)c2CO)cc(Nc2ccc(C(=O)N3CCOCC3)cn2)c1=O [II-55]
214 nM	Cn1cc(-c2cccc(NC(=O)c3ccc(C4CC4)cc3)c2CO)cc(NC(=O)NCCc2ccccn2)c1=O [II-78]
46 nM	CCC(O)CNC(=O)Nc1cc(-c2cccc(NC(=O)c3ccc(C4CC4)cc3)c2CO)cn(C)c1=O (stereo not shown) [II-85]
43 nM	CN(C)CCCNC(=O)Nc1cc(-c2cccc(NC(=O)c3ccc(C4CC4)cc3)c2CO)cn(C)c1=O [II-80]
54 nM	Cn1cc(-c2cccc(NC(=O)c3ccc(C4CC4)cc3)c2CO)cc(NC(=O)NCCCN2CCOCC2)c1=O [II-83]
14800 nM	CNC(=O)Nc1cc(-c2cccc(CC(=O)N3Cc4cc(Cl)c(Cl)cc4C3)c2)cn(C)c1=O [II-31]
50 nM	Cn1cc(-c2cccc(NC(=O)c3ccc(C(Cl)(Cl)Cl)cc3)c2CO)cc(Nc2ccc(C(=O)N3CCOCC3)cn2)c1=O [II-74]
90 nM	Cn1cc(-c2cccc(NC(=O)c3ccc(C4CC4)cc3)c2CO)cc(Nc2cnccn2)c1=O [II-98]
770 nM	Cn1cc(-c2cccc(NC(=O)c3ccccc3)c2CO)cc(Nc2ccc(C(=O)N3CCOCC3)cn2)c1=O [II-67]
66 nM	CCn1nc(Nc2cc(-c3cccc(NC(=O)c4ccc(C5CC5)cc4)c3CO)cn(C)c2=O)ccc1=O [II-91]
50 nM	Cn1cc(-c2cccc(NC(=O)c3ccc(C4(F)CC4)cc3)c2CO)cc(Nc2ccccn2)c1=O [II-64]
< 10 nM	CN(C)c1ccc(C(=O)Nc2cccc(-c3cc(Nc4ccc(C(=O)N5CCOCC5)cn4)c(=O)n(C)c3)c2CO)cc1 [II-49, 4-Dimethylamino-N-(2-hydroxymethyl-3-{1-methyl-5-[5-(morpholine-4-carbonyl)-pyridin-2-ylamino]-6-oxo-1,6-dihydro-pyridin-3-yl}-phenyl)-benzamide]

The remaining lines, values behind:

SMILES	IC50
Cn1cc(-c2cccc(NC(=O)c3ccc([Si](C)(C)C)cc3)c2CO)cc(Nc2ccc(C(=O)N3CCOCC3)cn2)c1=O [II-76]	40 nM
CCOc1cccc(Nc2cc(-c3cccc(NC(=O)c4ccc(C5CC5)cc4)c3CO)cn(C)c2=O)n1 [II-90]	81 nM
CN(C)c1ccc(C(=O)Nc2cccc(-c3cc(Nc4ccc(C(=O)N5CCC(N(C)C)CC5)cn4)c(=O)n(C)c3)c2CO)cc1 [II-60]	< 10 nM
C#Cc1ccc(C(=O)Nc2cccc(-c3cc(Nc4ccc(C(=O)N5CCOCC5)cn4)c(=O)n(C)c3)c2CO)cc1 [II-69]	76 nM
CNC(=O)Nc1cc(-c2cccc(NC(=O)c3ccc(N(C)C)nc3)c2C)cn(C)c1=O [II-15, 6-Dimethylamino-N-{2-methyl-3-[1-methyl-5-(3-methyl-ureido)-6-oxo-1,6-dihydro-pyridin-3-yl]-phenyl}-nicotinamide]	2310 nM
CC(O)CNC(=O)Nc1cc(-c2cccc(NC(=O)c3ccc(C4CC4)cc3)c2CO)cn(C)c1=O (stereo not shown) [II-86]	68 nM
CCNC(=O)Nc1cc(-c2cccc(NC(=O)c3ccc(C(C)(C)C)cc3)c2C)cn(C)c1=O [II-5]	13 nM
Cn1cc(-c2cccc(NC(=O)c3ccc(C(F)(C(F)(F)F)C(F)(F)F)cc3)c2CO)cc(Nc2ccc(C(=O)N3CCOCC3)cn2)c1=O [II-68]	71 nM
Cn1cc(-c2cccc(NC(=O)c3ccc(C4CC4)cc3)c2CO)cc(Nc2ccc(C(=O)N3CC(F)(F)C3)cn2)c1=O [II-100]	31 nM
COC(C)(C)c1ccc(C(=O)Nc2cccc(-c3cc(Nc4ccc(C(=O)N5CCOCC5)cn4)c(=O)n(C)c3)c2CO)cc1 [II-66]	24 nM
Cn1cc(-c2cccc(NC(=O)c3ccc(Br)cc3)c2CO)cc(Nc2ccc(C(=O)N3CCOCC3)cn2)c1=O [II-63]	31 nM
Cn1cc(-c2cccc(NC(=O)c3ccc(S(F)(F)(F)(F)F)cc3)c2CO)cc(Nc2ccc(C(=O)N3CCOCC3)cn2)c1=O [II-89]	< 10 nM
Cn1cc(-c2cccc(NC(=O)c3ccc(C(C)(C)C(F)(F)F)cc3)c2CO)cc(Nc2ccc(C(=O)N3CCNCC3)cn2)c1=O [II-81, N-(2-Hydroxymethyl-3-{1-methyl-6-oxo-5-[5-(piperazine-1-carbonyl)-pyridin-2-ylamino]-1,6-dihydro-pyridin-3-yl}-phenyl)4-(2,2,2-trifluoro-1,1-dimethyl-ethyl)-benzamide]	< 10 nM
CCNC(=O)Nc1cc(-c2cccc(NC(=O)c3ccc(C4CC4)cc3)c2CO)cn(C)c1=O [II-77]	40 nM
Cn1cc(-c2cccc(NC(=O)c3ccc(C(C)(C)F)cc3)c2CO)cc(Nc2ccc(C(=O)N3CCOCC3)cn2)c1=O [II-52]	< 10 nM
Cn1cc(-c2cccc(NC(=O)c3ccc(C4CC4)cc3)c2CO)cc(Nc2ccc(=O)n(Cc3ccccc3)n2)c1=O [II-93]	298 nM

Reference: patent US7943618B2, “Btk protein kinase inhibitors” (Roche Palo Alto LLC, priority 2007, dated 2011)
